Results taken from US20260027220A1, “EPHA2 BCL-XL INHIBITOR ANTIBODY-DRUG CONJUGATES AND METHODS OF USE THEREOF” (Novartis AG, priority 2022, published 2026).
Blank lines part the entries; values can stand above or below the molecule they belong to.

Legend:
EBC-1 xenografts [1] = experiment: EBC-1 xenograft efficacy, ADC dose reduction alone or with paclitaxel (Table 14, FIG. 2); format: in vivo, mice; conditions: Paclitaxel 12.5 mg/kg SD IV alone
Protocol: (§1) EBC-1 cells were cultured at 37° C. (atmosphere of 5% CO2) in DMEM medium (Gibco 11965-084) supplemented with 10% FBS (HI-FBS #134K19, Tet-free). Panc03.27 cells were cultured at 37° C. (atmosphere of 5% CO2) in RPMI-1640 medium (Gibco 11875-085) supplemented with 15% FBS and 10 units/mL recombinant human insulin. Treatment with 0.25% Trypsin (Gibco 25200-056) was used for sub-culturing. To establish EBC-1 and Panc03.27 xenografts, cells were harvested and re-suspended in a 1:1 v/v mixture of phosphate buffered saline and Matrigel. A total of 5×10^6 EBC-1 cells and 10×10^6 Panc03.27 cells were injected subcutaneously in the flanks of female nude mice (Charles River, USA) in a volume of 200 μL. Tumor growth was monitored regularly post cell inoculation, and animals were randomized into treatment groups (n=8) with a mean tumor volume of about 200 mm^3.
(§2) For EBC-1 efficacy studies, EphA2-DANAPA-L11C-P25 ADC, 3207-DANAPA-L11C-P25 isotype control ADC, and EphA2-DANAPA CysMab control antibody were all dosed in combination with paclitaxel (LC Laboratories, Woburn, MA, Cat #: P-9600), as indicated in FIG. 1 and FIG. 2. For Panc03.27 efficacy studies, EphA2-DANAPA-L11C-P25 ADC, 3207-DANAPA-L11C-P25 isotype control ADC, and EphA2-DANAPA CysMab control antibody were all dosed in combination with either gemcitabine (Hospira, NDC Code 0409-0185-01) or the MAPK inhibitors (MAPKi) LXH254 and CFF272, as indicated in FIG. 3 and FIG. 4 respectively. […]
(§3) Tumor volume data were analyzed for statistical significance relative to the EphA2-DANAPA-L11C-P25 ADC combination groups. […]
(§4) As a measure of efficacy, % T/C values were calculated according to the following formula: (Δtumor volume in experimental group/Δtumor volume in vehicle control group)*100. Tumor regression was calculated according to the following formula: (Δtumor volume in experimental group/tumor volume in experimental group at start)*100. Δtumor volumes represent mean tumor volumes on the measurement day minus the mean tumor volume at the start of treatment. […]

EBC-1 xenografts [2] = experiment: EBC-1 xenograft efficacy, combination with paclitaxel (Table 13, FIG. 1); format: in vivo, mice; conditions: Paclitaxel 12.5 mg/kg SD IV alone; Day 12
Protocol: as §1, §2, §3, §4

Panc03.27 xenografts = experiment: Panc03.27 xenograft efficacy, combination with gemcitabine (Table 15, FIG. 3); format: in vivo, mice; conditions: Gemcitabine 100 mg/kg IP q3dx3 alone
Protocol: as §1, §2, §3, §4

sw403 = experiment: CellTiter-Glo proliferation assay, sw403; format: cell-based; conditions: single agent, 5 days of treatment
Protocol: (§5) EphA2-L11A-P21 antibody drug conjugate (ADC) alone or in combination with Trametinib were tested against cancer cell lines obtained from ATCC (American Type Culture Collection) or from other commercial cell line vendors. EphA2-L11A-P21 ADC was prepared according to any of the conjugation methods described herein. The cells were cultured in media that is optimal for their growth at 5% CO2, 37° C. in a tissue culture incubator. Prior to seeding for the proliferation assay, the cells were split at least 2 days before the assay to ensure optimal growth density. On the day of seeding, cells were lifted off tissue culture flasks using 0.25% trypsin. Cell viability and cell density were determined using a cell counter (Vi-Cell XR Cell Viability Analyzer, Beckman Coulter). […]
(§6) The ADCs were prepared in standard phosphate buffered solution to desired concentrations. […] The ability of the ADCs to inhibit cell proliferation and survival was assessed using the Promega CellTiter-Glo® proliferation assay. Plates were incubated at room temperature for 20 minutes to stabilize luminescent signals prior to reading using a multimode plate reader (Pherastar, BMG). Luminescent counts of untreated cells were taken the day after seeding (Day 0 readings), and after 5 days of treatment (Day 5 readings). The Day 5 readings of the untreated cells were compared to the Day 0 readings. […]

hcc1143 = experiment: CellTiter-Glo proliferation assay, hcc1143; format: cell-based; conditions: single agent, 5 days of treatment
Protocol: as §5, §6

panc0327 = experiment: CellTiter-Glo proliferation assay, panc0327; format: cell-based; conditions: single agent, 5 days of treatment
Protocol: as §5, §6

capan2 = experiment: CellTiter-Glo proliferation assay, capan2; format: cell-based; conditions: single agent, 5 days of treatment
Protocol: as §5, §6

aspc1 = experiment: CellTiter-Glo proliferation assay, aspc1; format: cell-based; conditions: single agent, 5 days of treatment
Protocol: as §5, §6

skhep1 = experiment: CellTiter-Glo proliferation assay, skhep1; format: cell-based; conditions: single agent, 5 days of treatment
Protocol: as §5, §6

ncin87 = experiment: CellTiter-Glo proliferation assay, ncin87; format: cell-based; conditions: single agent, 5 days of treatment
Protocol: as §5, §6

dv90 = experiment: CellTiter-Glo proliferation assay, dv90; format: cell-based; conditions: single agent, 5 days of treatment
Protocol: as §5, §6

jhom2b = experiment: CellTiter-Glo proliferation assay, jhom2b; format: cell-based; conditions: single agent, 5 days of treatment
Protocol: as §5, §6

ebc1 = experiment: CellTiter-Glo proliferation assay, ebc1; format: cell-based; conditions: single agent, 5 days of treatment
Protocol: as §5, §6

skmel31 = experiment: CellTiter-Glo proliferation assay, skmel31; format: cell-based; conditions: single agent, 5 days of treatment
Protocol: as §5, §6

ocum1 = experiment: CellTiter-Glo proliferation assay, ocum1; format: cell-based; conditions: single agent, 5 days of treatment
Protocol: as §5, §6

cyno EphA2 ectodomain [3] = target: T1, cyno EphA2 ectodomain (cyno, UniProt Q1KL86 25-537); experiment: SPR (Biacore 8k), Fab-capture, 37C, 1:1 model; *low binding signal
T1 construct: extracellular domain
Protocol: (§7) A human Fab capture method was utilized in order to determine kinetics for the antibodies. […] Each channel has two flow cells. The reference flow cell contained only immobilized anti-Fab, whereas the reaction flow cell captured anti-EphA2 IgG through anti-Fab. HBS-EP+ Buffer, pH 7.6 was used as the running buffer. The soluble human, mouse and cyno EphA2 ectodomain flowed over both flow cells on 8 channels. The EphA2 ectodomain concentration started at 50 nM and was serially diluted at one part to one part (1:1) in the running buffer for six concentrations. The analysis chamber was kept at 37° C. Regeneration was performed at the end of each sample washing with the solution of 10 mM Glycine-HCl, pH 2.1 provided in the kit.
(§8) The data were analysed using the Biacore Insight Evaluation Software. Double reference subtraction was completed to generate the final data. The raw data was fitted to a 1:1 binding model, with parameter(s) Rₘₐₓ set to local.

cyno EphA2 ectodomain [4] = target: T1, cyno EphA2 ectodomain; experiment: SPR (Biacore 8k), Fab-capture, 37C, 1:1 model;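 also: Anti-EphA2 IgG captured via immobilized anti-Fab, soluble EphA2 ectodomain as analyte at six twofold dilutions from 50 nM, HBS-EP+ pH 7.6 running buffer, double reference subtraction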
Protocol: as §7, §8

T1 sequence (Q1KL86 25-537): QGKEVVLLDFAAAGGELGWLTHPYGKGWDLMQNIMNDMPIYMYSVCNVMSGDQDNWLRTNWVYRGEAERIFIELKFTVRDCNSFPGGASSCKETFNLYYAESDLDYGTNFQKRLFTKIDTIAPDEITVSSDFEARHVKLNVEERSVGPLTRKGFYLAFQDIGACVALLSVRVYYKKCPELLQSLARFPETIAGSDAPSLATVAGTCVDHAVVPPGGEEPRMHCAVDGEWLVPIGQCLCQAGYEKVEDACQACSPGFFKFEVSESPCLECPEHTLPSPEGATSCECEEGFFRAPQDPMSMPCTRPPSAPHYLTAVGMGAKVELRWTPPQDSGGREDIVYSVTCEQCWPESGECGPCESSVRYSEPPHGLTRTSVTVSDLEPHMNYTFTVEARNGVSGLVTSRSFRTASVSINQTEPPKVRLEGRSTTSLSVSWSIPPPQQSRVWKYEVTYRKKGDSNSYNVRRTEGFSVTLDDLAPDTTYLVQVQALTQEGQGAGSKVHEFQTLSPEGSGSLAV

Molecule: CC(=O)O[C@H]1C(=O)[C@@]2(C)[C@H]([C@H](OC(=O)c3ccccc3)[C@]3(O)C[C@H](OC(=O)[C@H](O)[C@@H](NC(=O)c4ccccc4)c4ccccc4)C(C)=C1C3(C)C)[C@]1(OC(C)=O)CO[C@@H]1C[C@@H]2O [Paclitaxel, paclitaxel]
- % T/C (EBC-1 xenografts [1]; Day 14): 71%
- ΔTumor volume (mm^3 ± SEM) (EBC-1 xenografts [1]; Day 14): 649 ± 97 mm^3
- Complete Responders (EBC-1 xenografts [1]; Day 16): 0/8
- % T/C (EBC-1 xenografts [2]): 46%
- Complete Responders (EBC-1 xenografts [2]): 0/8
- ΔTumor volume (mm^3 ± SEM) (EBC-1 xenografts [2]): 687 ± 224 mm^3

Molecule: Nc1ccn([C@@H]2O[C@H](CO)[C@@H](O)C2(F)F)c(=O)n1 [Gemcitabine]
- % T/C (Panc03.27 xenografts; Day 11): 31%
- ΔTumor volume (mm^3 ± SEM) (Panc03.27 xenografts; Day 11): 153 ± 39 mm^3
- Complete Responders (Panc03.27 xenografts; Day 34): 0/8

- GI50 (sw403; Homo sapiens, SW-403, 120 h): 5.32 nM
- GI50 (hcc1143; Homo sapiens, 120 h): 0.99 nM
- GI50 (panc0327; Homo sapiens, PANC-03-27, 120 h): 2.35 nM
- GI50 (aspc1; Homo sapiens, 120 h): 42.2 nM
Molecule: Cc1c(Nc2nc3ccccc3s2)nnc2c1CCCN2c1ccc(-c2cnn(C[C@]34C[C@]5(C)C[C@](C)(C3)C[C@@](OCCN3CCCC3)(C5)C4)c2C)c(C(=O)O)n1 [P21, 6-[3-(1,3-benzothiazol-2-ylamino)-4-methyl-6,7-dihydro-5H-pyrido[2,3-c]pyridazin-8-yl]-3-[1-[[3,5-dimethyl-7-(2-pyrrolidin-1-ylethoxy)-1-adamantyl]methyl]-5-methyl-pyrazol-4-yl]pyridine-2-carboxylic acid]
- GI Amax (sw403): −64.33
- GI Amax (hcc1143): −43.38
- GI Amax (panc0327): −79.2
- GI50 (capan2; Homo sapiens, Capan-2, 120 h): 4.38 nM
- GI Amax (capan2): −81.72
- GI Amax (aspc1): 2.18
- GI50 (skhep1; Homo sapiens, SK-HEP1, 120 h): 0.05 nM
- GI Amax (skhep1): −75.34
- GI50 (ncin87; Homo sapiens, NCI-N87, 120 h): 0.77 nM
- GI Amax (ncin87): −29.31
- GI50 (dv90; Homo sapiens, DV-90, 120 h): 266 nM
- GI Amax (dv90): 16.76
- GI50 (jhom2b; 120 h): 68.8 nM
- GI Amax (jhom2b): −27.63
- GI50 (ebc1; Homo sapiens, EBC-1, 120 h): 0.26 nM
- GI Amax (ebc1): −96.78
- GI50 (skmel31; 120 h): 0.05 nM
- GI Amax (skmel31): −56.5
- GI50 (ocum1; 120 h): 0.49 nM
- GI Amax (ocum1): −94.77

- Kd (cyno EphA2 ectodomain [3]): 196 nM
B1: anti-EphA2 E152C S375C 1C1 (LC S10T) hIgG1 (WT Heavy Chain) (antibody, V domains shown)
VH: EVQLLESGGGLVQPGGSLRLSCAASGFTFSHYMMAWVRQAPGKGLEWVSRIGPSGGPTHYADSVKGRFTISRDNSKNTLYLQMNSLRAEDTAVYYCAGYDSGYDYVAVAGPAEYFQHWGQGTLVTVSS
VL: DIQMTQSPSTLSASVGDRVTITCRASQSISTWLAWYQQKPGKAPKLLIYKASNLHTGVPSRFSGSGSGTEFSLTISGLQPDDFATYYCQQYNSYSRTFGQGTKVEIKR
notes: also called BB-60-FO04

- Kd (cyno EphA2 ectodomain [4]): 224 nM
B2: LC Germ (1C1) (antibody, V domains shown)
VH: EVQLLESGGGLVQPGGSLRLSCAASGFTFSHYMMAWVRQAPGKGLEWVSRIGPSGGPTHYADSVKGRFTISRDNSKNTLYLQMNSLRAEDTAVYYCAGYDSGYDYVAVAGPAEYFQHWGQGTLVTVSS
VL: DIQMTQSPSSLSASVGDRVTITCRASQSISTWLAWYQQKPGKAPKLLIYKASNLHTGVPSRFSGSGSGTEFSLTISGLQPDDFATYYCQQYNSYSRTFGQGTKVEIK
notes: also called lots BA-71-QS06, HE-38-AZ34

- Kd (cyno EphA2 ectodomain [4]): 265 nM
B3: anti-EphA2 IgG antibody 1C1 (antibody, V domains shown)
VH: EVQLLESGGGLVQPGGSLRLSCAASGFTFSHYMMAWVRQAPGKGLEWVSRIGPSGGPTHYADSVKGRFTISRDNSKNTLYLQMNSLRAEDTAVYYCAGYDSGYDYVAVAGPAEYFQHWGQGTLVTVSS
VL: DIQMTQSPSSLSASVGDRVTITCRASQSISTWLAWYQQKPGKAPKLLIYKASNLHTGVPSRFSGSGSGTEFSLTISGLQPDDFATYYCQQYNSYSRTFGQGTKVEIK
notes: Tested as IgG; also called 1C1 WT IgG; iProt 120126

- Kd (cyno EphA2 ectodomain [4]): 220 nM
B4: 1C1 ADC (antibody, V domains shown)
VH: EVQLLESGGGLVQPGGSLRLSCAASGFTFSHYMMAWVRQAPGKGLEWVSRIGPSGGPTHYADSVKGRFTISRDNSKNTLYLQMNSLRAEDTAVYYCAGYDSGYDYVAVAGPAEYFQHWGQGTLVTVSS
VL: DIQMTQSPSSLSASVGDRVTITCRASQSISTWLAWYQQKPGKAPKLLIYKASNLHTGVPSRFSGSGSGTEFSLTISGLQPDDFATYYCQQYNSYSRTFGQGTKVEIK
modifications: antibody-drug conjugate; linker-payload and conjugation sites not stated for this sample
notes: Antibody-drug conjugate of 1C1; also called XD-01-KE85
